Values of other authors, collected in US5240711A, “Transdermal therapeutic system comprising as active component buprenorphine” (LTS Lohmann Therapie-Systeme GmbH & Co. KG, priority 1989, dated 1993).

What was measured:
[1] = tested on: human skin

CO[C@]12CC[C@@]3(C[C@@H]1[C@](C)(O)C(C)(C)C)[C@H]1Cc4ccc(O)c5c4[C@@]3(CCN1CC1CC1)[C@H]2O5 [buprenorphine, 17-(cyclopropylmethyl)-α-(1,1-dimethylethyl)-4,5-epoxy-18,19-dihydro-3-hydroxy-6-methoxy-α-methyl-6,14-ethenomorphinane-7-methanol]
penetration through the human skin [1]: only badly penetrates through the human skin
solubility in conventional organic solvents and water: very slight solubility
